Data taken from US4278663A, “Antibiotic X-14868A, B, C and D” (Hoffmann-La Roche Inc., priority 1980, dated 1981).
≈ marks a conversion by molar mass, not a printed value. Like-named read-outs stand apart in the source and are kept apart here. One block for each molecule: values may come before it.

Experiments:
[1] = tested on: Staphylococcus aureus 82 ATCC 6538p; assay: Antimicrobial activity, Minimum Inhibitory Concentration (Table 4); format: cell-based; settings: G (+) cocci
[2] = tested on: Penicillin digitatum 0184 ATCC 26821; assay: as above; format: cell-based; settings: Molds
Bacillus sp.E ATCC 27859 = assay: as above; format: cell-based; settings: G (+) rods
Treponema hyodysenteriae = assay: Minimum Inhibitory Concentration against Treponema hyodysenteriae (Table 7); format: cell-based; settings: for MIC: Brachyspira hyodysenteriae
Excerpt: The compound was examined for activity against Treponema hyodysenteriae, the etiologic agent of swine dysentery. The results which represent a comparative test following well-known test methods versus a known agent in the treatment and prevention of swine dysentery are set forth in the table below.

ruminants = assay: Growth promotion / efficiency of feed utilization in ruminants; format: in vivo; settings: result in words
[3] = tested on: Bacillus megaterium 164 ATCC 8011; assay: Antimicrobial activity, Minimum Inhibitory Concentration (Table 4); format: cell-based; settings: G (+) rods
[4] = tested on: Paecilomyces varioti M16 ATCC 26820; assay: as above; format: cell-based; settings: Molds
[5] = tested on: Sarcina lutea PCI ATCC 9341; assay: as above; format: cell-based; settings: G (+) cocci
[6] = tested on: Mycobacterium phlei 78 ATCC 355; assay: as above; format: cell-based; settings: G (+) filaments
[7] = tested on: Saccharomyces cerevisiae 90 NRRL 4226; assay: as above; format: cell-based; settings: Yeast
[8] = tested on: Streptomyces cellulosae 097 ATCC 3313; assay: as above; format: cell-based; settings: G (+) filaments
[9] = tested on: Bacillus subtilis NRRL 558; assay: as above; format: cell-based; settings: G (+) rods
[10] = tested on: Candida albicans 155 NRRL 477; assay: as above; format: cell-based; settings: Yeast
[11] = tested on: Streptococcus faecium ATCC 8043; assay: as above; format: cell-based; settings: G (+) cocci
[12] = tested on: in vitro rumen fermentations; assay: Volatile fatty acid ratio in in vitro rumen fermentations (Table 6); design: species or system steer; settings: for VFA Molor Ratio C3 /(C2 +nC4): four hours, 38° C.; for % Positive Control: relative to monensin 50 ppm
Protocol: Rumen fluid is obtained from a steer with a fistulated rumen. The steer is maintained on the following ration:
The rumen fluid is immediately strained through a #30 mesh sieve. For each fermentation, 75 ml of the resulting fluid is added to a 250 ml flask containing the following:
1 g of 80%:20% finely ground grain: hay ration;
60 micromoles of each of the 10 essential amino acids (arginine, histidine, leucine, methionine, threonine, valine, lysine, isoleucine, phenylalanine,tryptophan);
Each flask is incubated at 38° C. in a shaking water bath equipped with a gassing hood. Carbon dioxide is continuously passed through the hood. […] The resulting fluid is permitted to sit at room temperature for 30 minutes. The fluid is filtered through a […] Millipore filter and refrigerated until gas-liquid chromatographic analysis for volatile fatty acids.

Compound: CO[C@@H]1[C@@H](OC)[C@H](C)[C@@](O)(CC(=O)O)O[C@H]1[C@H](C)[C@H]1O[C@@]2(CC[C@@](C)([C@H]3CC[C@@](C)([C@@H]4O[C@@H]([C@H]5O[C@](C)(O)[C@H](C)C[C@@H]5C)C[C@@H]4O[C@@H]4C[C@H](OC)[C@@H](OC)[C@H](C)O4)O3)O2)C[C@H](O)[C@H]1C.N [Antibiotic X-14868A]
Minimum Inhibitory Concentration [1]: 6.25 µg/mL
Minimum Inhibitory Concentration [2]: 1000 µg/mL
Minimum Inhibitory Concentration (Bacillus sp.E ATCC 27859): 0.39 µg/mL
Minimum Inhibitory Concentration, Mean (Treponema hyodysenteriae; mean of four strains): 0.05 meg/ml
Minimum Inhibitory Concentration (Treponema hyodysenteriae; strain B 169): 0.05 meg/ml
Minimum Inhibitory Concentration (Treponema hyodysenteriae; strain H 140): 0.05 meg/ml
Minimum Inhibitory Concentration (Treponema hyodysenteriae; strain H-78): 0.05 meg/ml
Minimum Inhibitory Concentration (Treponema hyodysenteriae; strain SQ 2): 0.05 meg/ml
efficiency of feed utilization in ruminant animals (ruminants; oral): increases the efficiency of feed utilization in ruminant animals
activity as a growth promotant in ruminants (ruminants): exhibit activity as a growth promotant in ruminants
Minimum Inhibitory Concentration [3]: 12.5 µg/mL
Minimum Inhibitory Concentration [4]: 250 µg/mL
Minimum Inhibitory Concentration [5]: 12.5 µg/mL
Minimum Inhibitory Concentration [6]: 12.5 µg/mL
Minimum Inhibitory Concentration [7]: 1000 µg/mL
Minimum Inhibitory Concentration [8]: 25 µg/mL
Minimum Inhibitory Concentration [9]: 12.5 µg/mL
Minimum Inhibitory Concentration [10]: 250 µg/mL
Minimum Inhibitory Concentration [11]: 0.313 µg/mL
VFA Molor Ratio C3 /(C2 +nC4) ([12]; 5 ppm): 0.323
% Positive Control ([12]; 5 ppm): 82.5%
VFA Molor Ratio C3 /(C2 +nC4) ([12]; 50 ppm): 0.358
% Positive Control ([12]; 50 ppm): 91.2%

MIC (Treponema hyodysenteriae; mean of four strains, read-out: Minimum Inhibitory Concentration, Mean): 1.1 µg/mL (≈ 6.5 µM)
MIC (Treponema hyodysenteriae; strain B 169, read-out: Minimum Inhibitory Concentration): 0.63 µg/mL (≈ 3.72 µM)
MIC (Treponema hyodysenteriae; strain H 140, read-out: Minimum Inhibitory Concentration): 0.63 µg/mL (≈ 3.72 µM)
MIC (Treponema hyodysenteriae; strain H-78, read-out: Minimum Inhibitory Concentration): 0.63 µg/mL (≈ 3.72 µM)
MIC (Treponema hyodysenteriae; strain SQ 2, read-out: Minimum Inhibitory Concentration): 2.5 µg/mL (≈ 14.8 µM)
Compound: CC(C)c1ncc([N+](=O)[O-])n1C [Ipronidazole, reference compound]

Compound: CC[C@@]1([C@@H]2O[C@@H]([C@H]3O[C@@](O)(CO)[C@H](C)C[C@@H]3C)C[C@@H]2C)CC[C@H]([C@]2(C)CC[C@]3(C[C@H](O)[C@@H](C)[C@@H]([C@@H](C)[C@@H](OC)[C@H](C)C(=O)O)O3)O2)O1 [Monensin, reference compound]
VFA Molor Ratio C3 /(C2 +nC4) ([12]; 50 ppm): 0.392
% Positive Control ([12]; 50 ppm): 100.0%
